According to PubChem BioAssay (NCI):
Where “and” joins values, the source holds several entries; their conditions need not be identical. Identical values can stand only once.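 Protocol summary: plate cells (96-well), add compound at 5 concentrations, incubate 48 h, interpolate endpoints linearly. At the GI50, growth is halved. TGI is the concentration that stops growth completely.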

Key:
Assay in all cases: NCI anticancer screen, dose series, 48 h
[1] = test system: 786-0 renal
[2] = test system: HOP-62 NSCLC
[3] = test system: HOP-92 NSCLC
[4] = test system: IGROV1 ovarian
[5] = test system: KM12 colon
[6] = test system: NCI-H23 lung
[7] = test system: NCI/ADR-RES ovarian
[8] = test system: SR leukemia
[9] = test system: UACC-257 melanoma
[10] = test system: UACC-62 melanoma

Compound	GI50 [1]	TGI [1]	GI50 [2]	TGI [2]	GI50 [3]	TGI [3]	GI50 [4]	TGI [4]	GI50 [5]	TGI [5]	GI50 [6]	TGI [6]	GI50 [7]	TGI [7]	GI50 [8]	TGI [8]	GI50 [9]	TGI [9]	GI50 [10]	TGI [10]
O=[N+]([O-])c1cccc(-c2nc3sccn3c2-c2ccnc(NCCCNS(=O)(=O)c3ccc(F)cc3)n2)c1	7.39 µM	> 100 µM	3.16 µM	9.61 µM	1.74 µM	> 100 µM	2.9 µM	26.8 µM	2.59 µM	7.91 µM	2.42 µM	9.16 µM	1.85 µM	7.31 µM	2.53 µM	> 100 µM	2.54 µM	7.96 µM	1.2 µM	4.21 µM
COC(=O)C1=CN(CC2=CC(=O)C(C)=CC2=O)C=C(C(=O)OC)C1c1cccc(OC)c1OC	7.56 µM	25.3 µM	15.8 µM	> 48.1 µM	2.68 µM	17.1 µM	17.4 µM	47.3 µM	18 µM	57.2 µM	22.4 µM	> 55.1 µM	18.3 µM	38.3 µM	1.08 µM	13.8 µM	18.5 µM	43.5 µM	13 µM	30.4 µM
CCN(CC)CCC(=O)Nc1cccc2c1C(=O)c1c(c(O)c3ccccc3c1O)C2=O	2.08 µM	4.39 µM	10.4 µM	39.1 µM	0.237 µM	8.56 µM	18.9 µM	96.8 µM	21.5 µM	> 100 µM	21.9 µM	> 100 µM	3.94 µM	40.4 µM	0.878 µM	52.4 µM	41.6 µM	> 100 µM	> 100 µM	> 100 µM
Nc1nc(-n2cccn2)nc(-n2cccn2)c1Br	> 100 µM	> 100 µM	> 100 µM	> 100 µM	> 100 µM	> 100 µM	> 100 µM	> 100 µM	> 100 µM	> 100 µM	> 100 µM	> 100 µM	> 100 µM	> 100 µM	> 100 µM	> 100 µM	> 100 µM	> 100 µM	> 100 µM	> 100 µM
COc1ccc(NC2=C(Sc3nc(C)cc(C)n3)C(=O)N(Cc3ccccc3)C2=O)cc1Cl	49.2 µM	> 160 µM	84.6 µM	> 160 µM	29.4 µM	> 160 µM	108 µM	> 160 µM	> 160 µM	> 160 µM	> 160 µM	> 160 µM	> 160 µM	> 160 µM	37.5 µM	> 160 µM	> 160 µM	> 160 µM	22.5 µM	> 160 µM
CCCCCCC(C)CC(CCCCCC)NCCOC(=O)c1ccc([N+](=O)[O-])cc1 (stereo unspecified)	–	33.7 µM and 33.5 µM	–	33.7 µM and 30.7 µM	–	23.9 µM and 23 µM	–	27 µM and 25.1 µM	–	27.9 µM and 23.7 µM	–	38.9 µM and 34.5 µM	–	58.8 µM and 32.1 µM	–	–	–	21.4 µM and 16.8 µM	–	28.7 µM and 26.6 µM
CNC(=O)c1cc(Oc2ccc3nc(NC(=O)Nc4ccc(Cl)c(Cl)c4)sc3c2)ccn1	2.26 µM	5.11 µM	2.24 µM	4 µM	2.66 µM	5.39 µM	2.55 µM	6.75 µM	3 µM	> 100 µM	2.78 µM	> 100 µM	2.3 µM	5.09 µM	6.47 µM	> 100 µM	–	–	2.32 µM	7.76 µM
CCOC(=O)c1cc2c(cc1Cl)SC(N(c1ccc(F)cc1)S(=O)(=O)c1ccc(OC)cc1)=NS2(=O)=O	24.4 µM	54.1 µM	35.1 µM	> 100 µM	4.81 µM	19.2 µM	37.7 µM	> 100 µM	22.8 µM	63.9 µM	18.5 µM	44 µM	21.2 µM	42.1 µM	16.8 µM	37.9 µM	–	–	14.6 µM	30.5 µM
FC(F)(F)c1ccc2c(c1)N(CCCN1CCN(C3CC3)CC1)c1ccccc1S2	15.4 µM	30.3 µM	14.4 µM	27.8 µM	13.9 µM	28.1 µM	11.6 µM	28.3 µM	7.68 µM	21 µM	7.42 µM	23.1 µM	10.3 µM	23.1 µM	3.79 µM	15.6 µM	5.57 µM	19 µM	14.1 µM	30.1 µM
COc1ncnc2c(NC3OC(CO)C(O)C3O)ncnc12 (stereo unspecified)	–	14 µM	–	18 µM	–	0.527 µM	–	3.82 µM	–	> 65.1 µM	–	13.5 µM	–	6.2 µM	–	0.276 µM	–	> 100 µM	–	6.66 µM
O=C(O)C(/C=C/c1ccco1)=N\Nc1nc(-c2ccc(Cl)cc2)cs1	14.3 µM	> 50 µM	16.5 µM	> 50 µM	10.1 µM	49.4 µM	7.93 µM	29.6 µM	11.2 µM	> 50 µM	15.2 µM	> 50 µM	12.4 µM	> 50 µM	4.83 µM	> 50 µM	16.8 µM	> 50 µM	7.79 µM	17.7 µM
CC1(C)OC2C(CO)OC(n3ccc(=O)[nH]c3=O)C2O1 (stereo unspecified)	–	> 100 µM	–	> 100 µM	–	> 100 µM	–	> 100 µM	–	–	–	> 100 µM	–	> 100 µM	–	> 100 µM	–	> 100 µM	–	> 100 µM
N#Cc1c(NC(=O)c2cccs2)[n+]([O-])c2ccccc2[n+]1[O-]	> 100 µM	> 100 µM	> 100 µM	> 100 µM	81.7 µM	> 100 µM	–	–	> 100 µM	> 100 µM	> 100 µM	> 100 µM	> 100 µM	> 100 µM	> 100 µM	> 100 µM	> 100 µM	> 100 µM	> 100 µM	> 100 µM
CC1C(=O)N=C2C(=CN(Cc3ccccc3)c3ccccc32)C(=O)N1C (stereo unspecified)	–	> 100 µM	–	–	–	> 100 µM	–	> 100 µM	–	> 100 µM	–	> 100 µM	–	> 100 µM	–	> 100 µM	–	> 100 µM	–	> 100 µM
